From patent US11084800B2 (Achillion Pharmaceuticals, Inc., priority 2017, dated 2021)

molecular target: Human Factor D (Homo sapiens (Human), UniProt P00746); test: Human Factor D Assay; format: biochemical; details: Factor D inhibition, assay of Example 10; read-out: IC5 (Stars)
Outline: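 Serum-purified Factor D (80 nM final) preincubated 5 min at room temperature with compound in 50 mM Tris, 1 M NaCl, pH 7.5. Z-L-Lys-SBz and DTNB added at 100 μM each; A405 followed every 30 s for 30 min. IC50 from nonlinear regression of rates versus concentration.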

Chain of Human Factor D (P00746 26-253): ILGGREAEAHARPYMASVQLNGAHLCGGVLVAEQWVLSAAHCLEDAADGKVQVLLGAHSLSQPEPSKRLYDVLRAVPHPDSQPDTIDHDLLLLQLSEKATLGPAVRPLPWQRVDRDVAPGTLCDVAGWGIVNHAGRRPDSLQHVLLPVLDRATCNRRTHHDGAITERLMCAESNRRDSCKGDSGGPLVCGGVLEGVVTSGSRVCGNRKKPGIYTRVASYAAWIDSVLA

| SMILES | IC50 [nM] |
| --- | --- |
| CC(=O)c1nn(CC(=O)N2[C@H](C(=O)Nc3nc(Br)ccc3C)C[C@@]3(Cc4nnco4)C[C@@H]23)c2c(C)cc(-c3cnc(C)nc3)cc12 [Compound 359, (1R,3S,5R)-5-((1,3,4-Oxadiazol-2-yl)methyl)-2-(2-(3-acetyl-7-methyl-5-(2-methylpyrimidin-5-yl)-1H-indazol-1-yl)acetyl)-N-(6-bromo-3-methylpyridin-2-yl)-2-azabicyclo[3.1.0]hexane-3-carboxamide] | < 1000 |
| CC(=O)c1nn(CC(=O)N2[C@H](C(=O)Nc3nc(Br)ccc3C)C[C@@]3(Cc4nnc(C)o4)C[C@@H]23)c2c(C)cc(-c3cnc(C)nc3)cc12 [Compound 360, (1R,3S,5R)-2-(2-(3-acetyl-7-methyl-5-(2-methylpyrimidin-5-yl)-1H-indazol-1-yl)acetyl)-N-(6-bromo-3-methylpyridin-2-yl)-5-((5-methyl-1,3,4-oxadiazol-2-yl)methyl)-2-azabicyclo[3.1.0]hexane-3-carboxamide] | < 1000 |
| Cc1ncc(-c2cc3c(C(N)=O)nn(CC(=O)N4[C@H](C(=O)Nc5nc(Br)ccc5C)C[C@@]5(C)C[C@@H]45)c3cn2)cn1 [Compound 361, 1-(2-((1R,3S,5R)-3-((6-bromo-3-methylpyridin-2-yl)carbamoyl)-5-methyl-2-azabicyclo[3.1.0]hexan-2-yl)-2-oxoethyl)-5-(2-methylpyrimidin-5-yl)-1H-pyrazolo[3,4-c]pyridine-3-carboxamide] | < 1000 |
| CC(=O)c1nn(CC(=O)N2[C@H](C(=O)Nc3nc(Br)ccc3-c3nnc(C(C)C)o3)C[C@@]3(C)C[C@@H]23)c2ccc(-c3cnc(C)nc3)cc12 [Compound 362, (1R,3S,5R)-2-(2-(3-acetyl-5-(2-methylpyrimidin-5-yl)-1H-indazol-1-yl)acetyl)-N-(6-bromo-3-(5-isopropyl-1,3,4-oxadiazol-2-yl)pyridin-2-yl)-5-methyl-2-azabicyclo[3.1.0]hexane-3-carboxamide] | 1000 to 10000 |
| COc1ccc(Br)nc1NC(=O)[C@@H]1C[C@@]2(C)C[C@H]2N1C(=O)Cn1nc(C(C)=O)c2cc(-c3cnc(C)nc3)ccc21 [Compound 363, (1R,3S,5R)-2-(2-(3-acetyl-5-(2-methylpyrimidin-5-yl)-1H-indazol-1-yl)acetyl)-N-(6-bromo-3-methoxypyridin-2-yl)-5-methyl-2-azabicyclo[3.1.0]hexane-3-carboxamide] | < 1000 |
| CC(=O)c1nn(CC(=O)N2[C@H](C(=O)Nc3nc(Br)ccc3CN3CC(F)C3)C[C@@]3(C)C[C@@H]23)c2ccc(-c3cnc(C)nc3)cc12 [Compound 364, (1R,3S,5R)-2-(2-(3-acetyl-5-(2-methylpyrimidin-5-yl)-1H-indazol-1-yl)acetyl)-N-(6-bromo-3-((3-fluoroazetidin-1-yl)methyl)pyridin-2-yl)-5-methyl-2-azabicyclo[3.1.0]hexane-3-carboxamide] | < 1000 |
| CC(=O)c1nn(CC(=O)N2[C@H](C(=O)Nc3nc(Br)ccc3CC#N)C[C@@]3(C)C[C@@H]23)c2c(C)cc(-c3cnc(C)nc3)cc12 [Compound 365, (1R,3S,5R)-2-(2-(3-acetyl-7-methyl-5-(2-methylpyrimidin-5-yl)-1H-indazol-1-yl)acetyl)-N-(6-bromo-3-(cyanomethyl)pyridin-2-yl)-5-methyl-2-azabicyclo[3.1.0]hexane-3-carboxamide] | < 1000 |

same assay, conditions: Table 8; Factor D 80 nM, substrate Z-L-Lys-SBz; read-out: IC50

| SMILES | IC50 [nM] |
| --- | --- |
| COC(=O)CCCCCCCCCCCCCCCCC(=O)N[C@@H](CCC(=O)NCCOCCOCC(=O)NCCOCCOCC(=O)NC[C@@]12C[C@@H](C(=O)Nc3nc(Br)ccc3C)N(C(=O)Cn3nc(C(C)=O)c4cc(-c5cnc(C)nc5)ccc43)[C@@H]1C2)C(=O)OC [Compound 358, (S)-methyl 1-((1R,3S,5R)-2-(2-(3-acetyl-5-(2-methylpyrimidin-5-yl)-1H-indazol-1-yl)acetyl)-3-((6-bromo-3-methylpyridin-2-yl)carbamoyl)-2-azabicyclo[3.1.0]hexan-5-yl)-24-(methoxycarbonyl)-3,12,21,26-tetraoxo-5,8,14,17-tetraoxa-2,11,20,25-tetraazatritetracontan-43-oate] | > 10000 |
